What was measured:
[1] = biological target: TNF-α converting enzyme (TACE) (Homo sapiens, UniProt P78536); assay: Test procedure for measuring TACE inhibition (fluorescent peptidyl substrate); assay type: biochemical
In short: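 TACE (1 μg/mL final) preincubated 10 min at room temperature with 1 μM compound in 10 mM Tris pH 7.4, 10% glycerol, DMSO <1%. Treated rates tested against control by Dunnett's test (p<0.05).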

THP-1 cells = assay: Human monocytic THP-1 cell differentiation assay for soluble proteins (THP-1 soluble protein assay); assay type: cell-based; conditions: LPS-stimulated THP-1 cells, soluble protein not given
Text: Mitogenic stimulation of THP-1 cells cause differentiation into macrophage like cells with concomitant secretion of tumor necrosis factor (TNF-α) and TNF receptor (TNF-R p75/80 and TNF-R p55160) and Interleukin-8 (IL-8), among other proteins. In addition, non-stimulated THP-1 cells shed both the p75/80 and the p55/60 receptors over time. The release of membrane bound TNF-α and possibly TNF-R p75/80 and TNF-R p55/60, but not IL-8, is mediated by an enzyme called TNF-α converting enzyme or TACE.
THP-1 cells (from ATCC) are a human monocytic cell line which were obtained from the peripheral blood of a person with acute monocytic leukemia. They can be grown in culture and differentiated into macrophage like cells by stimulation with mitogens.
Each vial of cells are cultured for about two weeks prior to being used for an assay and then are used for only 4 to 6 weeks to screen compounds.
Cell exposure to DMSO was limited to 0.1% final concentration. […] Compounds can be evaluated for their effect on basal (non-stimulated) shedding of the receptors by replacing the LPS with […] of THP-1 media.
Plates are placed into an incubator set at 5% CO2 and at 37° C. After 4 hours of incubation, […] of tissue culture supernatant (TCS) is removed for use in an TNF-α ELISA. Following 24 hours of incubation, […] of TCS is removed and used for analysis in TNF-R p75/80, TNF-R p55160 and IL-8 ELISAs.
In addition, at the 24 hours timepoint, and the cells for each treatment group are collected by resuspension in 500 μl/well of THP-1 media and transferred into a FACS tube. […] The samples are run on a Becton Dickinson FaxCaliber FLOW cytometry machine and the amount of dye taken up by each cell is measured in the high red wavelength (FL3). Only cells with compromised membranes (dead or dying) can take up PI. The percent of live cells is calculated by the number of cells not stained with PI, divided by the total number of cells in the sample. The viability values calculated for the drug treated groups were compared to the viability value calculated for the vehicle treated mitogen stimulated group (“vehicle positive control”) to determine the “percent change from control”. This “percent change from control” value is an indicator of drug toxicity.
The quantity of soluble TNF-α, TNF-R p75/80 and TNF-R p55160 and IL-8 in the TCS of the THP-1 cell cultures are obtained with commercially available ELISAs from R&D Systems, by extrapolation from a standard curve generated with kit standards. The number of cells that either take up or exclude PI are measured by the FLOW cytometry machine and visualized by histograms using commercially available Cytologic software for each treatment group including all controls.
Biological variability in the magnitude of the response of THP-1 cell cultures requires that experiments be compared on the basis of percent change from “vehicle positive control” for each drug concentration. Percent change in each soluble protein evaluated from the “vehicle positive control” was calculated for each compound concentration with the following formula: [formula]
For the soluble protein (TNF-α, p75/80, p55/60, IL-8) studies under stimulated conditions, the mean pg/ml of duplicate wells were determined and the results expressed as percent change from “vehicle positive control”. For the soluble protein (p75/80 and p55/60 receptors) studies under non-stimulated conditions, the mean pg/ml of duplicate wells were determined and the results expressed as percent change from “vehicle positive control” utilizing the following formula: [formula]
IC50 values for each compound are calculated by non-linear regression analysis using customized software utilizing the JUMP statistical package.
For the cell viability studies, the viabilities (PI exclusion) of pooled duplicate wells were determined and the results expressed as % change from “vehicle positive control”.

MMP-9 = MMP-9 (Homo sapiens, UniProt P14780); assay: MMP-9 inhibition (thiopeptide or fluorescent peptide substrate); assay type: biochemical; conditions: for IC50: read-out: MMP9 IC50
MMP-9, sequence (P14780 94-707): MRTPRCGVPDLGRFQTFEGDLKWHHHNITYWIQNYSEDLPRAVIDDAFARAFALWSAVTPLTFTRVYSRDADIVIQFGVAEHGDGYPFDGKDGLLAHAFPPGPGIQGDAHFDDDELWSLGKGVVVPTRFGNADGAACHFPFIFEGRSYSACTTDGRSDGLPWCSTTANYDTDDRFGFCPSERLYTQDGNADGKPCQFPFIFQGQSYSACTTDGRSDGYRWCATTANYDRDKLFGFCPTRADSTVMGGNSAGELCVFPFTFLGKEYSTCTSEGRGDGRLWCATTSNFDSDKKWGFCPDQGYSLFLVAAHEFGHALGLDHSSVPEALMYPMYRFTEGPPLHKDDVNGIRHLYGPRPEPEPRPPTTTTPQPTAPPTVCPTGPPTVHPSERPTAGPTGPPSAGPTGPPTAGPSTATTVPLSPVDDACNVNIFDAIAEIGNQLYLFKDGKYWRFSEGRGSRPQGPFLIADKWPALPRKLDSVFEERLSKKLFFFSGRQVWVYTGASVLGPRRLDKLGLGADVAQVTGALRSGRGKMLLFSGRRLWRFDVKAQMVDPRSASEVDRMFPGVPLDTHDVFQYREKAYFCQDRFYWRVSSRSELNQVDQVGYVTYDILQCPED

TNF-α converting enzyme (TACE), sequence (P78536 215-824): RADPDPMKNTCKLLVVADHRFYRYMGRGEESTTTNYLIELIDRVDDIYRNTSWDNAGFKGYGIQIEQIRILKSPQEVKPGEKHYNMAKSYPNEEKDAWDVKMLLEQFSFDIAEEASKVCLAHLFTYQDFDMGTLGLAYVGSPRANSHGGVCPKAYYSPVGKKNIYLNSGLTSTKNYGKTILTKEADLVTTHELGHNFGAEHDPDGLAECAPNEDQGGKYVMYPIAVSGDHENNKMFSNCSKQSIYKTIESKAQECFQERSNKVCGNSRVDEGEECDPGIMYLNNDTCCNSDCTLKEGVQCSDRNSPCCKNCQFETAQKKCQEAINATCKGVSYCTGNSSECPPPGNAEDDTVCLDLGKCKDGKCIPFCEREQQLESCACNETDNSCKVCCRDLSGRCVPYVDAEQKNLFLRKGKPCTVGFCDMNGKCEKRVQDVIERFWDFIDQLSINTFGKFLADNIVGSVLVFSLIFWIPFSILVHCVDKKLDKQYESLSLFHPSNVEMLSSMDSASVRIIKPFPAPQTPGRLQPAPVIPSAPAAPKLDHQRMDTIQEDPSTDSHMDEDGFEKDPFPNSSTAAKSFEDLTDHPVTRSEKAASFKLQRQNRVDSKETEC

| Compound | IC50 [1] | inhibition at 3 µM (THP-1 cells) | IC50 (MMP-9) | MMP9 % inhibition (MMP-9; printed in the MMP9 IC50 column, concentration not given) |
| --- | --- | --- | --- | --- |
| CC#CCOc1ccc(S(=O)(=O)C2(C(=O)NO)CCN(Cc3ccc(OCCN4CCCCC4)cc3)CC2)cc1 [Example 26, 4-{[4-(2-Butynyloxy)phenyl]sulfonyl}-1-[4-(2-piperidin-1-yl-ethoxy)-benzyl]-piperidine-4-carboxylic acid hydroxyamide] | 136 nM | 63% | 25.1 nM |  |
| CC#CCOc1ccc(S(=O)(=O)C2(C(=O)NO)CCN(C(CC)CC)CC2)cc1 [Example 27, 4-{[4-(2-Butynyloxy)phenyl]sulfonyl}-1-(3-pentanyl)-piperidine-4-carboxylic acid hydroxyamide] | 168 nM | 13% | 1540 nM |  |
| C#CCOc1ccc(S(=O)(=O)C2(C(=O)NO)CCN(Cc3ccc(OC)cc3)CC2)cc1 [Example 28, 1-(4-Methoxy-benzyl)-4-(4-prop-2-ynyloxy-benzenesulfonyl)-piperidine-4-carboxylic acid hydroxyamide] | 150 nM | 13% | 15.4 nM |  |
| C#CCOc1ccc(S(=O)(=O)C2(C(=O)NO)CCN(Cc3ccc(Cl)cc3)CC2)cc1 [Example 29, 1-(4-Chlorobenzyl)-4-(4-prop-2-ynyloxy-benzenesulfonyl)-piperidine-4-carboxylic acid hydroxyamide] | 127 nM | 13% | 16 nM |  |
| CC#CCOc1ccc(SCC2(C(=O)NO)CCN(C(=O)OC(C)(C)C)CC2)cc1 [Example 30, tert-butyl-4-({[4-(2-butynyloxy)phenyl]sulfanyl}methyl)-4-[(hydroxyamino)-carbonyl]-1-piperidinecarboxylate] | 102 nM | 0% | 5900 nM |  |
| CC#CCOc1ccc(SCC2(C(=O)NO)CCNCC2)cc1 [Example 31, 4-({[4-(But-2-ynyloxy)phenyl]thio}methyl)-N-hydroxypiperidine-4-carboxamide] | 314 nM | 8% | > 10000 nM |  |
| CC#CCOc1ccc([S+]([O-])CC2(C(=O)NO)CCN(C(=O)OC(C)(C)C)CC2)cc1 (stereo not drawn) [Example 32, tert-Butyl-4-({[4-(2-butynyloxy)phenyl]sulfinyl}methyl)-4-[(hydroxyamino)-carbonyl]-1-piperidinecarboxylate] | 100 nM | 0% | > 10000 nM |  |
| CC#CCOc1ccc([S+]([O-])CC2(C(=O)NO)CCNCC2)cc1 (stereo not drawn) [Example 33, 4-[[[4-(2-Butynyloxy)phenyl]sulfinyl]methyl]-N-hydroxy-4-piperidinecarboxamide] | 327 nM | 8% | > 5000 nM |  |
| CC#CCOc1ccc(S(=O)(=O)CC2(C(=O)NO)CCN(C(=O)OC(C)(C)C)CC2)cc1 [Example 34, tert-Butyl-4-({[4-(but-2-ynyloxy)phenyl]sulfonyl}methyl)-4-[(hydroxyamino)-carbonyl]piperidine-1-carboxylate] | 33 nM | 68% | 1390 nM |  |
| CC#CCOc1ccc(S(=O)(=O)CC2(C(=O)NO)CCN(C(C)=O)CC2)cc1 [Example 36, 1-Acetyl-4-[[[4-(2-butynyloxy)phenyl]sulfonyl]methyl]-N-hydroxy-4-piperidinecarboxamide] | 4.8 nM | 58% | 2830 nM |  |
| CC#CCOc1ccc(S(=O)(=O)CC2(C(=O)NO)CCN(C(=O)NC(C)(C)C)CC2)cc1 [Example 38] | 19 nM | 53% | 1440 nM |  |
| CC#CCOc1ccc(S(=O)(=O)CC2(C(=O)NO)CCN(C(=O)OCc3ccccc3)CC2)cc1 [Example 40, Benzyl 4-({[4-(2-butynyloxy)phenyl]sulfonyl}methyl)-4-[(hydroxyamino)-carbonyl]-1-piperidinecarboxylate] | 63 nM | 41% | 425 nM |  |
| CC#CCOc1ccc(S(=O)(=O)CC2(C(=O)NO)CCN(Cc3ccccc3)CC2)cc1 [Example 41] | 37 nM | 60% | 1120 nM |  |
| CC#CCOc1ccc(S(=O)(=O)CC2(C(=O)NO)CCN(C(=O)C3(C)COC(C)(C)OC3)CC2)cc1 [Example 42, 4-({[4-(2-Butynyloxy)phenyl]sulfonyl}methyl)-N-hydroxy-1-[(2,2,5-trimethyl-1,3-dioxan-5-yl)carbonyl]-4-piperidinecarboxamide] | 12 nM | 78% | > 10000 nM |  |
| CC#CCOc1ccc(S(=O)(=O)CC2(C(=O)NO)CCN(C(=O)C(C)(CO)CO)CC2)cc1 [Example 43, 4-({[4-(2-Butynyloxy)phenyl]sulfonyl}methyl)-N-hydroxy-1-[3-hydroxy-2-(hydroxymethyl)-2-methylpropanoyl]-4-piperidinecarboxamide] | 13 nM | 66% | > 10000 nM |  |
| CC#CCOc1ccc(S(=O)(=O)CC2(C(=O)NO)CCN(C(=N)N)CC2)cc1 [Example 44] | 56 nM | 49% |  | 50.6% |
| CC#CCOc1ccc(S(=O)(=O)CC2(C(=O)NO)CCN(CC#CCO)CC2)cc1 [Example 45] | 25 nM | 48% | 3580 nM |  |
| CC#CCOc1ccc(S(=O)(=O)C2(C(=O)NO)CCN(C(C)=O)CC2)cc1 [Example 64, 1-Acetyl-4-(4-but-2-ynyloxybenzenesulfonyl)piperidine-4-carboxylic acid hydroxamide] | 47 nM | 30% | 560 nM |  |
| CC#CCOc1ccc(S(=O)(=O)C2(C(=O)NO)CCN(C(=O)c3ccccc3)CC2)cc1 [Example 65, 1-Benzoyl-4-(4-but-2-ynyloxybenzenesulfonyl)piperidine-4-carboxylic acid hydroxamide] | 73 nM | 3% | 448 nM |  |
| CC#CCOc1ccc(S(=O)(=O)C2(C(=O)NO)CCN(C(=O)c3ccc(OC)cc3)CC2)cc1 [Example 66, 1-(4-Methoxybenzoyl)-4-(4-but-2-ynyloxybenzenesulfonyl)piperidine-4-carboxylic acid hydroxamide] | 106 nM | 73% | 430 nM |  |
| CC#CCOc1ccc(S(=O)(=O)C2(C(=O)NO)CCN(C(=O)N3CCCC3)CC2)cc1 [Example 67, 4-(4-But-2-ynyloxybenzenesulfonyl)-N-hydroxy-1-(pyrrolidine-1-carbonyl)-4-piperidinecarboxamide] | 72 nM | 18% | 853 nM |  |
| CC#CCOc1ccc(S(=O)(=O)C2(C(=O)NO)CCN(C(=O)OCC)CC2)cc1 [Example 68, Ethyl 4-(4-but-2-ynyloxybenzenesulfonyl)-4-[(hydroxyamino)-carbonyl]-1-piperidinecarboxylate] | 77 nM | 10% | 1330 nM |  |
| CC#CCOc1ccc(S(=O)(=O)C2(C(=O)NO)CCN(S(=O)(=O)C(F)(F)F)CC2)cc1 [Example 69, 4-(4-But-2-ynyloxybenzenesulfonyl)-N-hydroxy-1-[(trifluoromethyl)-sulfonyl]-4-piperidinecarboxamide] | 115 nM | 14% | 1250 nM |  |
| CC#CCOc1ccc(S(=O)(=O)C2(C(=O)NO)CCN(C(=O)c3cccnc3)CC2)cc1 [Example 70, 4-(4-But-2-ynyloxybenzenesulfonyl)-N-hydroxy-1-(3-pyridinylcarbonyl)-4-piperidinecarboxamide] | 87 nM | 62% | 639 nM |  |
